The subject of data set [1] is three UCCs (VM-CUB1, UM-UC-3, 639-V). The data set is described as follows: qRT-PCR of TS and p21CIP1 mRNA. The settings on record: 19i 2 μM, 24 or 48 h, all three UCCs. It counts as cell-based, human. As to the method: Total cell RNA was isolated by the Qiagen RNeasy Mini Kit (Qiagen, Hilden, Germany) according to the manufacturer’s protocol, and cDNA was synthesized using QuantiTect Reverse Transcription Kit (Qiagen, Hilden, Germany) with an extended incubation time of 30 min at 42 °C as previously described. Target mRNA expression was measured by qRT-PCR with QuantiTect SYBR Green RT-PCR Kit (Qiagen, Hilden, Germany) on the LightCycler® 96 Real-Time PCR system with software version 1.1 (Roche Diagnostics, Rotkreuz, Switzerland). All used primers, comprising QuantiTect Primer assays (Qiagen, Hilden, Germany), self-designed target primers, and primers for the reference housekeeping gene TBP (TATA-box binding protein), are listed in Additional file 2: Table S1.
A general note: Real-time PCR tracks product formation cycle by cycle.

In data set [2] the test system is VM-CUB1 and UM-UC-3 cells. Description: Nuclear morphology analysis (DAPI, rhodamine phalloidin). It counts as cell-based, human. The settings on record: 19i 2 μM, 24 or 48 h. Here is the method: As previously described, after fixation with 4% formaldehyde, cells were permeabilized (0.3% Triton X100 in PBS, 10 min, RT), blocked (1% BSA in PBS, 30 min, RT), and subsequently incubated for 1 h at RT with 14 nM Rhodamine Phalloidin in blocking solution. Following counter-staining of nuclei with 1 μg/ml DAPI (4′,6-diamidino-2-phenylindole), cells were mounted with fluorescence mounting medium (DAKO, Glostrup, Denmark). For each treatment option and sample, 500 cells were counted and the amount of mitosis and micronuclei was quantified using a Nikon Eclipse 400 microscope (Nikon, Tokyo, Japan).

Data set [3] relates to three UCCs (VM-CUB1, UM-UC-3, 639-V). The data set is described as follows: High-content analysis-based fluorescent live/dead assay, three UCCs together. It counts as cell-based, human. The conditions noted are these: HCA live/dead assay, 72 h. As to the method:
Live and dead cells were assayed by high-content analysis (HCA). […] After 72 h of treatment, cells were stained with a mixture of Hoechst 33342 (Sigma Aldrich, St. Louis, MO), calcein AM (Merck Millipore, Germany), and propidium iodide (Santa Cruz Biotechnology, Heidelberg) for cell nuclei, live and dead cells. The staining solution was replaced by PBS after 20 min. Images were acquired using ArrayScan XTI Live High Content Platform (Thermo Fisher Scientific Inc., USA) using excitation filters of 386, 485, and 560 nm for Hoechst 33342, calcein AM, and propidium iodide, respectively. The results were analyzed using HCS Studio Cellomics Scan (Thermo Fisher Scientific Inc., USA).

Data set [4] has as its system VM-CUB1-LV. Description: MTT viability assay (CC50). It counts as cell-based, human. The settings on record: VM-CUB1-LV (empty vector), 72 h. Here is the method:
(§1) HDAC4 cDNA from the pcDNA-HDAC4-FLAG plasmid kindly provided by Tso-Pang Yao (Addgene plasmid # 30485) was cloned into the lentiviral vector puc2CL12IPwo using standard techniques, thereby creating the vector puc2CL12IPwo-HDAC4-FLAG (Additional file 1: Figure S1). Integrity of the HDAC4 coding sequence was verified by sequencing. Lentivirus production and cell transduction were performed as previously described. In brief, to produce replication-deficient lentiviruses, HEK-293T cells were transfected with helper plasmid expression construct (pCD/NL-BH [35]), envelope vector (pczVSV-G [36]), and the vector plasmids puc2CL12IPwo or puc2CL12IPwo-HDAC4-FLAG. Viral particles were harvested 48 h after transfection and used to transduce VM-CUB1 and UM-UC-3 cells using 8 μg/ml polybrene (Sigma Aldrich, St. Louis, MO). Twenty-four hours after transduction, the supernatant containing viral particles was removed and the transduced cells were selected with 4 (VM-CUB1) or 1 (UM-UC-3) μg/ml puromycin (Invitrogen, Carlsbad, CA) for 7 days. Stable overexpression of HDAC4 was confirmed by Western blot analysis of cells from several passages.
(§2) For the determination of cellular mean cytotoxic concentration (CC50), UCCs, non-malignant control cells, and HDAC4-overexpressing clones were seeded in a 96-well format and treated once with a range of defined concentrations of the HDAC inhibitors. After 72 h, viability was quantified by NAD(P)H-dependent 3-(4,5-dimethylthiazol-2-yl)-2,5-diphenyltetrazolium bromide dye reduction assay (MTT, Sigma Aldrich, St. Louis, MO). CC50 values were estimated from three independent experiments by non-linear regression analysis (four-parameter logistic equation) using Prism 4.0 (Graph Pad) or Origin 8.0 (Origin Lab, Northhampton, GB). For time-dependent proliferation experiments, viability of untreated or inhibitor-treated cells was measured after 24, 48, and 72 h.

For data set [5], the system named is VM-CUB1-HDAC4. Description: MTT viability assay (CC50). It counts as cell-based, human. The settings on record: VM-CUB-HDAC4 (HDAC4-overexpressing), 72 h. As to the method:
as §1, §2
(In general: Tetrazolium dyes change colour on reduction, which living cells bring about.)

Data set [6] has as its system UM-UC-3-HDAC4. Description: MTT viability assay (CC50). Type of data set: cell-based, human. The conditions noted are these: UM-UC-3-HDAC4 (HDAC4-overexpressing), 72 h. As to the method:
as §1, §2

For data set [7], the system named is UM-UC-3-LV. Description: MTT viability assay (CC50). It counts as cell-based, human. The conditions noted are these: UM-UC-3-LV (empty vector), 72 h. Here is the method: as §1, §2
Data set [8] deals with T1, HDAC1 (Homo sapiens, UniProt Q13547). Set-up: purchased Reaction Biology Corp. (Malvern, PA). The settings on record: previously reported; given for HDAC1/2 together; cited from earlier work.
T1 sequence (Q13547 whole entry): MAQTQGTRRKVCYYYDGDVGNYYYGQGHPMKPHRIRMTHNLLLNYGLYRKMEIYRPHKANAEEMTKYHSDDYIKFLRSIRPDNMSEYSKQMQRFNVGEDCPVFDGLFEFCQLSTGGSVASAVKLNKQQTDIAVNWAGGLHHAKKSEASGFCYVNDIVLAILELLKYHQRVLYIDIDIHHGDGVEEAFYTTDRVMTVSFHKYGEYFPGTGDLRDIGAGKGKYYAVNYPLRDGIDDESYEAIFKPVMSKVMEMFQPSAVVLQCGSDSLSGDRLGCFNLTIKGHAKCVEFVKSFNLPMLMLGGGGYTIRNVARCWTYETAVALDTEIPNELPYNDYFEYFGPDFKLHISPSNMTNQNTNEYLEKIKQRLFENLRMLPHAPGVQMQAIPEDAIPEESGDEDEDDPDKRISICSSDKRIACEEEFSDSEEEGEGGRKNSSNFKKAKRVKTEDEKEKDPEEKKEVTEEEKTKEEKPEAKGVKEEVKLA
The target in data set [9] is T1, HDAC1. The data set is described as follows: In vitro fluorescence-based HDAC inhibition assay (Reaction Biology). The settings on record: read-out: IC50 HDAC1; experiment performed once.
Data set [10] relates to UC cells. The data set is described as follows: Clonogenicity assay with Giemsa staining. It counts as cell-based, human. The settings on record: 2 μM 19i for 48 h, replated. As to the method: Then, depending on the cell line, 500–1000 cells were seeded in 6-cm plates, and 10 to 15 days later, colonies were washed with PBS, fixed in methanol, and stained with Giemsa (Merck Millipore, Darmstadt, Germany).

The values below come from PMC6069857, “Effects of novel HDAC inhibitors on urothelial carcinoma cells” (Clinical Epigenetics, 2018).

Usually CC50 stands for the concentration at which the toxic effect on the cells reaches its halfway point. Read a low CC50 as greater toxicity to the cells. For orientation: IC50 means the concentration that inhibits the measured activity by half. For `Cc1cc(C)cc(C(=O)NOCCCCCC(=O)NO)c1` [19i], the “p21CIP1 mRNA expression” value in [1] is given as “increased”. Besides, the “thymidylate synthase (TS) mRNA expression” value in [1] is listed as “decreased”. Also, the number of mitoses result in data set [2] was “decreased sharply”. In data set [2], the “percentage of cells with micronuclei” value was “increased”. The CC50 in data set [3] is below 1000 nM; in data set [4], 950 nM; in [5], 630 nM; in [6], 740 nM; in data set [7], 790 nM. The “in vitro IC50 HDAC1” value in data set [8] is given as “sub-micromolar”. Further, the half-maximal inhibitory concentration (IC50) in data set [9] came out at 315 nM. The clonogenic potential entry in data set [10] was “impaired the clonogenic potential”.
